From PubChem BioAssay (NCI)
“And” between values parts separate entries of the source, which are not always exact repeats. Equal entries are not always repeated.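 Each compound was tested at five concentrations against cells in 96-well plates for 48 hours. At the GI50, growth is halved. Definition used: TGI = concentration required for complete inhibition of growth.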

Assays:
Assay in all cases: NCI-60 cell line screen, 48 h
SK-MEL-28 melanoma = tested on: SK-MEL-28 melanoma
A498 renal = tested on: A498 renal
M14 melanoma = tested on: M14 melanoma
HT29 colon = tested on: HT29 colon
OVCAR-5 ovarian = tested on: OVCAR-5 ovarian
EKVX NSCLC = tested on: EKVX NSCLC
T-47D breast = tested on: T-47D breast
SK-MEL-2 melanoma = tested on: SK-MEL-2 melanoma
HL-60(TB) leukemia = tested on: HL-60(TB) leukemia
SR leukemia = tested on: SR leukemia

| Compound | TGI (SK-MEL-28 melanoma) | TGI (A498 renal) | TGI (M14 melanoma) | TGI (HT29 colon) | TGI (OVCAR-5 ovarian) | TGI (EKVX NSCLC) | TGI (T-47D breast) | TGI (SK-MEL-2 melanoma) | TGI (HL-60(TB) leukemia) | TGI (SR leukemia) | GI50 (A498 renal) | GI50 (HT29 colon) | GI50 (EKVX NSCLC) | GI50 (T-47D breast) | GI50 (SK-MEL-2 melanoma) | GI50 (SR leukemia) |
| --- | --- | --- | --- | --- | --- | --- | --- | --- | --- | --- | --- | --- | --- | --- | --- | --- |
| O=[N+]([O-])/C(C(Cl)=C(Cl)Cl)=C(\Nc1cccc2cccnc12)SCc1ccccc1 | 33.9 µM | 50.6 µM | 74.3 µM | 48.5 µM | 78.9 µM | 49.1 µM | 40.2 µM | 41 µM | – | – | – | – | – | – | – | – |
| COCOc1ccc(Cn2c(=O)n(C)c(=O)c3c2ncn3C)cc1[N+](=O)[O-] | > 100 µM | – | > 100 µM | > 100 µM | – | > 100 µM | – | – | > 100 µM | > 100 µM | – | – | – | – | – | – |
| O=C1/C(=C\c2cccc(Oc3ccccc3)c2)S(=O)(=O)C(c2ccccc2)N1Cc1ccccc1 (centres undefined) | 93.2 µM | > 100 µM | 76.6 µM | – | > 100 µM | 71.9 µM | > 100 µM | 40.7 µM | 57.7 µM | 46.2 µM | – | – | – | – | – | – |
| O=P(c1ccccc1)(c1ccccc1)N1O[C@@H](c2ccccc2)C=C[C@H]1c1ccccc1 | 38.3 µM | – | 23.9 µM | 26.5 µM | 32.1 µM | 24.1 µM | 20 µM | 24.9 µM | 28.4 µM | 50.4 µM | – | – | – | – | – | – |
| CSc1c(C#N)c(N)n2c1C(=O)N(c1ccccc1)C2=S | > 100 µM | 94.3 µM | > 100 µM | > 100 µM | > 100 µM | > 100 µM | > 100 µM | – | > 100 µM | – | – | – | – | – | – | – |
| Cc1c(C(=O)CSc2nc3ccccc3c(=O)n2-c2ccccc2)c(=O)n(-c2ccccc2)n1C | > 100 µM | > 100 µM | > 100 µM | > 100 µM | > 100 µM | – | – | > 100 µM | > 100 µM | > 100 µM | – | – | – | – | – | – |
| CC12CC(=O)C3C(C(=O)C1)C32C (centres undefined) | > 100 µM | > 100 µM | > 100 µM | > 100 µM | > 100 µM | > 100 µM | – | > 100 µM | – | > 100 µM | – | – | – | – | – | – |
| O=C1c2cc3c(cc2CC1Br)CCC3 (centres undefined) | 8.56 µM | 32.2 µM | 2.85 µM | 5.78 µM | 14.9 µM | 28.9 µM | 5.68 µM | 5.2 µM | > 20.1 µM | – | – | – | – | – | – | – |
| CC(C(=O)n1nnc2ccccc21)N(c1ccccc1)c1ccccc1 (centres undefined) | > 100 µM | – | > 100 µM | > 100 µM | > 100 µM | > 100 µM | – | > 100 µM | > 100 µM | > 100 µM | – | – | – | – | – | – |
| CC1(C)N=C(C(N)=O)c2ncn(CCCO)c2N1 | > 100 µM | > 100 µM | > 100 µM | > 100 µM | > 100 µM | > 100 µM | > 100 µM | – | > 100 µM | > 100 µM | – | – | – | – | – | – |
| CC[C@H]1CN2CCc3cc(OC)c(OC)cc3[C@@H]2C[C@@H]1C[C@H]1NCCc2cc(OC)c(OC)cc21 | 0.176 µM and 0.109 µM | 0.176 µM | 0.0512 µM and 0.0606 µM | 0.242 µM and 0.168 µM | 0.2 µM and 0.551 µM | 0.151 µM and 0.144 µM | 0.0887 µM | 0.111 µM and 0.17 µM | – | – | – | – | – | – | – | – |
| C1=CC2=CC=CC3c4nc5ccc6ccccc6c5nc4C(=C1)C23 (centres undefined) | > 100 µM | – | > 100 µM | > 100 µM | > 100 µM | > 100 µM | > 100 µM | > 100 µM | > 100 µM | > 100 µM | – | – | – | – | – | – |
| O=C(NC(Cc1ccc(I)cc1)C(=O)O)c1ccc(I)cc1 (centres undefined) | > 100 µM | > 100 µM | – | > 100 µM | > 100 µM | > 83.6 µM | – | > 100 µM | > 100 µM | – | – | – | – | – | – | – |
| COc1cc([N+](=O)[O-])c(OC)cc1-c1nc2sc(Cl)cn2c1/C=N/Nc1ccccn1 | – | 19.4 µM | – | > 50 µM | – | > 50 µM | > 50 µM | > 50 µM | – | 12.1 µM | 8.95 µM | > 50 µM | > 50 µM | 20.6 µM | > 50 µM | 0.0877 µM |
| N#C/C(=C\c1cc(Br)c(O)c(Br)c1)c1cccnc1 | > 100 µM | – | > 100 µM | > 100 µM | > 100 µM | 53.3 µM | – | 44.4 µM | > 100 µM | 76.5 µM | – | – | – | – | – | – |
| O=C1CN2C(c3ccccc3)=NN(c3ccc([N+](=O)[O-])cc3)C2(c2ccccc2)c2cc(Cl)ccc2N1CC1CC1 (centres undefined) | > 100 µM | > 100 µM | > 100 µM | > 100 µM | > 100 µM | > 100 µM | – | – | – | > 100 µM | – | – | – | – | – | – |
| CN(C)c1nc(=NCc2ccccc2)ss1 | > 10 µM | > 10 µM | > 10 µM | > 10 µM | > 10 µM | > 10 µM | > 10 µM | – | > 8.45 µM | 6.37 µM | – | – | – | – | – | – |
| O=C(NCCCN(CCCCN(CCCNC(=O)C(F)(F)F)Cc1ccccc1)Cc1ccccc1)C(F)(F)F | 25.1 µM | 72.2 µM | 12.1 µM | 19.2 µM | 40.8 µM | 25.3 µM | 40.6 µM | – | 36.3 µM | – | – | – | – | – | – | – |
| CC(=O)OCC1OC(n2cc([N+](=O)[O-])c(=O)[nH]c2=O)C(OC(C)=O)C(OC(C)=O)C1OC(C)=O (centres undefined) | > 100 µM | > 100 µM | > 100 µM | > 100 µM | > 100 µM | > 100 µM | – | > 100 µM | > 100 µM | > 100 µM | – | – | – | – | – | – |
| C/C(CC1C2CCCC1C2)=N\NC(N)=O (centres undefined) | > 100 µM | – | > 100 µM | > 100 µM | > 100 µM | > 100 µM | > 100 µM | > 100 µM | > 100 µM | > 100 µM | – | – | – | – | – | – |
| Cc1cn(C2OC(C)(CO)C(O)C2O)c(=O)[nH]c1=O (centres undefined) | > 100 µM | > 100 µM | > 100 µM | > 100 µM | > 100 µM | – | – | > 100 µM | – | > 100 µM | – | – | – | – | – | – |
| N#CCCN(CCC#N)c1ccc(/C=C2\N=C(c3ccccc3)N(c3ccc(Cl)cc3)C2=O)cc1 | > 100 µM | > 100 µM | > 100 µM | > 100 µM | > 100 µM | > 100 µM | > 100 µM | > 100 µM | > 100 µM | – | – | – | – | – | – | – |
| CS(=O)(=O)OCCn1c(=O)n(CCOS(C)(=O)=O)c(=O)n(CCOS(C)(=O)=O)c1=O | > 100 µM | > 100 µM | – | > 100 µM | > 100 µM | > 100 µM | > 100 µM | – | > 100 µM | > 100 µM | – | – | – | – | – | – |
| O=S(=O)(O)c1cc2ccc1/C=C\c1ccc(cc1S(=O)(=O)O)N=Nc1ccc(c(S(=O)(=O)O)c1)/C=C\c1ccc(cc1S(=O)(=O)O)N=N2 | > 100 µM | > 100 µM | – | > 100 µM | > 100 µM | > 100 µM | – | > 100 µM | > 100 µM | – | – | – | – | – | – | – |
